Measured values from EP0336356A2, “Derivatives of tryptophan as CCK antagonists” (ABBOTT LABORATORIES, priority 1988, dated 1989).
Structures can show the parent of a compound that is named as a salt.

How the values were obtained:
CCK receptors [1] = target: T1, CCK receptors (Cavia porcellus, UniProt Q63931); test: [125I]BH-CCK8 radioligand binding, guinea pig pancreatic membranes; conditions: 37°C for 30 min, read-out: IC₅₀ (nM) [¹²⁵I]-BH-CCK₈ Pancreas
T1 construct: cortex and pancreas were removed and rinsed with ice-cold saline; from tissue; host or cells: guinea pig pancreas membranes
T1 sequence (Q63931 1-430): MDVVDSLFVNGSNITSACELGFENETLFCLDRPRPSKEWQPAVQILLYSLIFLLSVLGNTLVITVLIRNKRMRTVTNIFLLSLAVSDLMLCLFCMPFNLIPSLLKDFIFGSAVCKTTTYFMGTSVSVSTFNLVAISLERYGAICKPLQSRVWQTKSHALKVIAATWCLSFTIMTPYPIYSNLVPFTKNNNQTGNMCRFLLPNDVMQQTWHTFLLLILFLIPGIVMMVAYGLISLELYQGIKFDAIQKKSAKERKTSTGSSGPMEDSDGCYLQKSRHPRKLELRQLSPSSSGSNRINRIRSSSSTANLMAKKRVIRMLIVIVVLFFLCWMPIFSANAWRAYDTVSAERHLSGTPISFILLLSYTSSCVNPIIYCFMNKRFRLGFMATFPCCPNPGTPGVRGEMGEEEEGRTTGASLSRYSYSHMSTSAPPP

CCK receptors [2] = target: T2, CCK receptors (Cavia porcellus, UniProt H0VZC5); test: [125I]BH-CCK8 radioligand binding, guinea pig cerebral cortical membranes; conditions: 30°C for 150 min, read-out: IC₅₀ (nM) [¹²⁵I]-BH-CCK₈ Cortex
T2 construct: cortex and pancreas were removed and rinsed with ice-cold saline; from tissue; host or cells: guinea pig cerebral cortex membranes
T2 sequence (H0VZC5 1-426): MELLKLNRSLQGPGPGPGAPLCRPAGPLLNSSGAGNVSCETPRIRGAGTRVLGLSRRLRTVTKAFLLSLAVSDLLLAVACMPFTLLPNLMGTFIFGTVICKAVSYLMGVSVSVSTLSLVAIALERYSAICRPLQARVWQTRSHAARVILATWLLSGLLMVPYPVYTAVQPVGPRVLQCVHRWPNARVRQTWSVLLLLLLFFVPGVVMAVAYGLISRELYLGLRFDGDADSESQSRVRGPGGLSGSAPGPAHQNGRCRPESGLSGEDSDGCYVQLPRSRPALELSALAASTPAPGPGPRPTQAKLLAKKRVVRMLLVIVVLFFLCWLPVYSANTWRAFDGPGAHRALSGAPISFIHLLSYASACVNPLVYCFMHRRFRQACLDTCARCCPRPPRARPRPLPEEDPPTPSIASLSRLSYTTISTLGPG

CCK receptors [3] = target: T1, CCK receptors; test: Inhibition of CCK8-stimulated amylase release from guinea pig pancreatic acini; assay type: cell-based; conditions: reference concentration for CCK₈ 3x10⁻¹⁰M, 37°C, 30 min, read-out: IC₅₀ (nM) Inhibition of Amylase Release
Procedure: This assay was performed using the modified protocol of Lin et al., J. Pharmacol Exp. Ther. 236, 729-734, 1986. Guinea pig acini were prepared by the method of Bruzzone et al. (Biochem. J. 226, 621-624, 1985) as follows. Pancreas was dissected out and connective tissues and blood vessels were removed. […] The composition of the KRH buffer was: HEPES, 12.5 mM: NaCl, 118 mM; […] CaCl₂, 1 mM; KH₂PO₄, 1.2 mM; MgSO₄, 1.2 mM; NaHCO₃, 5 mM; glucose, 10 mM, pH 7.4. The buffer was supplemented with 1% MEM vitamins, 1% MEM amino acids and 0.001% aprotinin. The tube was shaken by hand until the suspension appeared homogeneous, usually 5 to 6 min. 5 mL of the KRH, without collagenase and with 0.1% BSA, were added and the tube was centrifuged at 50 x g for 35 sec. The supernatant was discarded and 6 mL of the KRH were added to the cell pellet. […] This wash procedure was repeated once. The cell pellet from the last centrifugation step was then resuspended in 15 mL of KRH containing 0.1% BSA. The contents were filtered through a dual nylon mesh, size 275 and 75 um. The filtrate, containing the acini, were centrifuged at 50 x g for 3 min. The acini were then resuspended in 5 mL of KRH-BSA buffer for 30 min at 37°C, under 100% O₂, with a change of fresh buffer at 15 min. After the 30 min incubation time, the acini were resuspended in 100 volumes of KRH-BSA buffer, containing 3 uM phosphoramidon and 100 µM bestatin. […] The final assay volume was 500 uL. Tubes were vortexed and placed in a 37°C waterbath, under 100% O₂, for 30 min. Afterward, tubes were centrifuged at 10,000 g for 1 min. Amylase activity in the supernatant and the cell pellet were separately determined after appropriate dilutions in 0.1% Triton X-100, 10 mM NaH₂PO₄, pH 7.4 by Abbott Amylase A-gent test using the Abbott Bichromatic Analyzer 200. […]

| IC50 (CCK receptors [1]) [nM] | IC50 (CCK receptors [2]) [nM] | IC50 (CCK receptors [3]) [nM] | Structure (SMILES) |
| --- | --- | --- | --- |
| 420 | > 10000 | < 10000 | O=C(N[C@H](Cc1c[nH]c2ccccc12)C(=O)NCc1ccccc1)c1cc2ccccc2[nH]1 [Example 8, N-(2′-Indolylcarbonyl)-R-Tryptophan-benzylamide] |
| 1000 | 10000 | < 100000 | O=C(NC(Cc1c[nH]c2ccccc12)C(=O)N1CCC2CCCCC2C1)c1cnc2ccccc2c1 (stereo not drawn) [Example 40, N-(3′-Quinolylcarbonyl)-Tryptophan-perhydroisoquinolylamide] |
| – | – | < 10000 | O=C(NC(Cc1c[nH]c2ccccc12)C(=O)Nc1cnc2ccccc2c1)c1cnc2ccccc2c1 (stereo not drawn) [Example 46, N-(3′-Quinolylcarbonyl)-Tryptophan-N-(3′-quinolyl)amide] |
| 670 | 6300 | < 100000 | CCCCCN(CCCCC)C(=O)[C@H](Cc1c[nH]c2ccccc12)NC(=O)c1cnc2ccccc2c1 [Example 100, N-(3′-Quinolylcarbonyl)-S-Tryptophan-di-n-pentylamide] |
| 62 | > 10000 | – | CCCCCN(CCCCC)C(=O)C(Cc1c[nH]c2ccc(F)cc12)NC(=O)c1cnc2ccccc2c1 (racemic) [Example 63, N-(3′-Quinolylcarbonyl)-R,S-5-fluorotryptophan-di-n-pentylamide] |
| 180 | – | < 100000 | CCCCCN(CCCCC)C(=O)[C@@H](Cc1c[nH]c2ccccc12)NC(=O)c1ccc2ncccc2c1 [Example 97, N-(6′-Quinolylcarbonyl)-R-Tryptophan-di-n-pentylamide] |
| 1200 | > 10000 | – | COC(=O)[C@@H](NC(=O)[C@@H](Cc1c[nH]c2ccccc12)NC(=O)c1cnc2ccccc2c1)c1ccc(O)cc1 [Example 50, Methyl N-(3′-Quinolylcarbonyl)-R-Tryptophyl-S-(p-hydroxyphenyl)glycinate] |
| 630 | – | < 100000 | CCCCCN(CCCCC)C(=O)[C@@H](Cc1c[nH]c2ccccc12)NC(=O)c1cc2ccccc2cn1 [Example 96, N-(3′-Isoquinolylcarbonyl)-R-Tryptophan-di-n-pentylamide] |
| 2.6 | < 10000 | – | CCCCCN(CCCCC)C(=O)[C@@H](Cc1c[nH]c2ccc(O)cc12)NC(=O)c1cnc2ccccc2c1 [Example 84, N^α-(3′-Quinolylcarbonyl)-R-5-hydroxytryptophan-di-n-pentylamide] |
| 17 | 13000 | – | CCCCCN(CCCCC)C(=O)[C@@H](Cc1c[nH]c2ccccc12)NC(=O)c1cnc2ccccc2c1 [Example 117, N-(3′-Quinolylcarbonyl)-R-Tryptophan-di-n-pentylamide mesylate salt] |
| – | – | < 30000 | O=C(N[C@H](Cc1c[nH]c2ccccc12)C(=O)NCc1ccccc1)c1cnc2ccccc2c1 [Example 7, N-(3′-Quinolylcarbonyl)-R-Tryptophan-benzylamide] |

Second part, the molecule before the results:

| Structure (SMILES) | IC50 (CCK receptors [1]) [nM] | IC50 (CCK receptors [2]) [nM] | IC50 (CCK receptors [3]) [nM] |
| --- | --- | --- | --- |
| CCCCCN(CCCCC)C(=O)[C@@H](Cc1c(Sc2ccccc2[N+](=O)[O-])[nH]c2ccccc12)NC(=O)c1cnc2ccccc2c1 [Example 45, N-(3′-Quinolylcarbonyl)-2-(2′-nitrophenylsulfenyl)-R-Tryptophan-di-n-pentylamide] | 1500 | > 10000 | – |
| CCCCCN(CCCCC)C(=O)C(Cc1c[nH]c2ccc(OCc3ccccc3)cc12)NC(=O)c1cnc2ccccc2c1 (racemic) [Example 53, N-(3′-Quinolylcarbonyl)-R,S-5-benzyloxytryptophan-di-n-pentylamide] | – | > 10000 | – |
| C[C@@H](NC(=O)C(Cc1c[nH]c2ccccc12)NC(=O)c1cc2ccccc2[nH]1)c1ccccc1 (stereo partly drawn) [Example 18, N-(2′-Indolylcarbonyl)-Tryptophan-(1′,R-phenylethyl)amide] | 680 | 10000 | < 30000 |
| CCCCCN(CCCCC)C(=O)[C@@H](Cc1c[nH]c2ccccc12)NC(=O)c1ccc2cc(O)ccc2c1 [Example 93, N-(6′-Hydroxy-2′-naphthoyl)-R-Tryptophan-di-n-pentylamide] | – | – | 100000 |
| C[C@H](NC(=O)C(Cc1c[nH]c2ccccc12)NC(=O)c1cc2ccccc2[nH]1)c1ccccc1 (stereo partly drawn) [Example 19, N-(2′-Indolylcarbonyl)-Tryptophan-(1′,S-phenylethyl)amide] | 1000 | > 10000 | < 10000 |
| CCCCCN(CCCCC)C(=O)[C@H]1Cc2c([nH]c3ccccc23)N1C(=O)c1cnc2ccccc2c1 [Example 78, 2,3-Dihydro-1-(3′-quinolylcarbonyl)-pyrrolo[2,3-b]indole-(2R)-dipentylcarboxamide] | 370 | > 10000 | – |
| CCCCCN(CCCCC)C(=O)[C@@H](Cc1c[nH]c2ccccc12)NC(=O)c1cc2cc(F)ccc2[nH]1 [Example 106, N-(5′-Fluoro-2′-indolylcarbonyl)-R-Tryptophan-di-n-pentylamide] | 82 | – | – |
| CCCCCN(CCCCC)C(=O)[C@@H](CC1C(=O)Nc2ccccc21)NC(=O)c1cnc2ccccc2c1 (stereo partly drawn) [Example 69, N-(3′-Quinolylcarbonyl)-R-(β-oxyindolyl)Ala-di-n-pentylamide] | 10 | 4100 | – |
| CCCCCN(CCCCC)C(=O)[C@@H](Cc1c[nH]c2ccccc12)NC(=O)c1cc2ccccc2[nH]1 [Example 3, N-(2′-Indolylcarbonyl)-R-Tryptophan-di-n-pentylamide] | 51 | – | 670 |
| CCCCCN(CCCCC)C(=O)[C@@H](Cc1c[nH]c2ccccc12)NC(=O)c1ccc2cccc(O)c2n1 [Example 90, N′(8′-Hydroxy-2′-quinolylcarbonyl)-R-Tryptophan-di-n-pentylamide] | 230 | > 10000 | – |
| CCCCCN(CCCCC)C(=O)[C@@H](Cc1c[nH]c2ccccc12)NC(=O)c1ccc(Cl)cc1 [Example 4, N-(p-Chlorobenzoyl)-R-Tryptophan-di-n-pentylamide] | 330 | – | – |
| CCCCCN(CCCCC)C(=O)[C@@H](Cc1c[nH]c2ccccc12)NC(=O)c1cc(O)c2cccc(O)c2n1 [Example 91, N-(4′,8′-Dihydroxy-2′-quinolylcarbonyl)-R-Tryptophan-di-n-pentylamide] | 5 | – | – |
| CCCCCN(CCCCC)C(=O)[C@@H](Cc1c[nH]c2ccccc12)NC(=O)c1cc2cc(C)ccc2[nH]1 [Example 105, N-(5′-Methyl-2′-indolylcarbonyl)-R-Tryptophan-di-n-pentylamide] | 620 | > 10000 | – |
| CCCCCN(CCCCC)C(=O)[C@@H](Cc1c[nH]c2ccccc12)NC(=O)C1=C(C)c2ccccc2C1 [Example 57, N-(2′-(3′-Methylindenyl)carbonyl)-R-Tryptophan-di-n-pentylamide] | 750 | > 10000 | – |
| CCCCCN(CCCCC)C(=O)C(Cc1c[nH]c2ccccc12)NC(=O)C=Cc1cccnc1 (stereo not drawn) [Example 54, N-(3′-(3˝-Pyridyl)prop-2-enoyl)-R-Tryptophan-di-n-pentylamide] | – | – | < 100000 |
| CCCCCN(CCCCC)C(=O)C(Cc1c[nH]c2ccc(F)cc12)NC(=O)c1cc2ccccc2[nH]1 (racemic) [Example 64, N-(2′-Indolylcarbonyl)-R,S-5-fluorotryptophandi-n-pentylamide] | 330 | 10000 | – |
